Data from paper PMC4710668, “Bioactivation of food genotoxicants 5-hydroxymethylfurfural and furfuryl alcohol by sulfotransferases from human, mouse and rat: a comparative study” (Archives of Toxicology, 2014).

Tests used:
Test in all cases: HMF sulfoconjugation assay
Type in all cases: biochemical
mSult2a1 = target: T1, mSult2a1 (Mus musculus, UniProt P52843)
T1 construct: made in house; host or cells: Salmonella typhimurium TA1538 (cytosolic fraction, enzyme not purified)
T1 sequence (P52843 1-285): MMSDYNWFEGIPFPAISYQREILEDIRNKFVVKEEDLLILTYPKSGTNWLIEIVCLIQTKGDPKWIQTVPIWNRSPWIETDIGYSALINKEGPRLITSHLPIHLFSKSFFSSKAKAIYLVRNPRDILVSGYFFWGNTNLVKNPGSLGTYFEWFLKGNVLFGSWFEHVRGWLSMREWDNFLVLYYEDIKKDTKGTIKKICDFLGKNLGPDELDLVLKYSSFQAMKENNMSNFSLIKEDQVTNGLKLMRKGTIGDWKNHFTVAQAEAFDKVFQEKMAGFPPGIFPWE
Protocol: (§1) Cytosolic fractions containing individual SULT forms were prepared from transgenic S. typhimurium TA1538. Table S1 in the Supplementary Material provides a summary of the thirty SULTs used in the current study together with references describing the cloning of the respective S. typhimurium TA1538 strains. The expressed SULT forms are denoted with the prefixes h, m and r for human, mouse and rat enzymes, respectively. Bacteria were grown in Luria Broth medium containing ampicillin (100 µg/ml) by stirring for 8 h at 200 revolutions/min at 37 °C. The bacterial suspensions were centrifuged at 5,000 g for 10 min. The sediments were washed twice with 25 ml of 10 mM potassium phosphate buffer (pH 7.4)/50 mM potassium chloride (KCP buffer) and centrifuged again. The pellets were taken up in 800 µl KCP buffer and sonicated thrice for 15 s with 30 s pauses in between. The soluble fraction was attained by centrifuging for 1 h at 100,000 g. The supernatants (in the following termed cytosolic preparations) were frozen at −80 °C. The protein concentrations were determined according to a bicinchoninic acid (BCA) assay protocol. The SULT concentrations in the cytosolic preparations were estimated after electrophoretic separation and immunodetection using inclusion bodies of different SULT forms as standards (Teubner et al. [2007]). The preparation of SULT inclusion bodies and the immunodetection of SULTs is described in the Supplementary Material, which also contains a representative immunoblot of different amounts of rSult1a1standard and a cytosolic preparation of S. typhimurium expressing rSult1a1 (Fig. S1).
(§2) The reactions were conducted in mixtures of 100 µl containing 25–200 µg protein, 50 mM potassium phosphate buffer (pH 7.4), 5 mM MgCl2, 50 µM PAPS and different concentrations of HMF at 37 °C. Preliminary experiments ensured that measurements were recorded under ‘linear’ conditions, i.e., doubling of protein concentration or incubation time was doubling the amount of sulfate ester formed. The reactions were stopped after 30 min by adding 300 µl ice-cold 2-propanol, mixed and centrifuged at 15,000 g for 10 min.
(§3) SMF concentrations of the clear supernatants were analyzed by UPLC-MS/MS. The protocol was adapted from the quantification of SMF in plasma samples of HMF-treated mice (Monien et al. [2009]). In short, the supernatants were analyzed using a UPLC system (Waters) connected to a Quattro Premier XE tandem quadrupole mass spectrometer (Waters) using the negative electrospray ionization mode. Samples of 4 µl were injected into a HSS T3 column (1.8 µm, 2.1 × 100 mm; Waters) and eluted with an isocratic flow of 0.35 ml/min 10 mM ammonium acetate/methanol (95:5). The fragmentation reactions of SMF yielding two principal ions, the sulfate ion radical (m/z = 204.9 → 96.0) and the protonated sulfonate ion (m/z = 204.9 → 81.0) were monitored. The tune parameters were as follows: temperature of the electrospray source 120 °C; desolvation temperature 475 °C; desolvation gas nitrogen (800 l/h); cone gas nitrogen (100 l/h); collision gas argon (indicated cell pressure ~5 × 10^−3 mbar). For the fragmentation of SMF, collision energies were 20 and 23 eV for the transitions m/z = 204.9 → 81.0 and m/z = 204.9 → 96.0, respectively. The dwell time was set to 100 ms, and capillary voltage was set to 0.35 kV. The cone and RF1 lens voltages were 32 and 0.2 V, respectively. SMF was quantified using an external calibration line that was linear in the concentration range of 1.0 nM (4 fmol/injection) to 2,500 (10 pmol/injection) SMF (r ^2 ≥ 0.99). Data acquisition and handling were performed with MassLynx 4.1 software (Waters). The limit of detection (LOD) for this technique of 2.5 nM SMF has been reported (Monien et al. [2009]). In the current study, this corresponds to 10 fmol SMF per injection or a reaction rate of 0.5 pmol SMF/mg/min.

mSult2a2 = target: T2, mSult2a2 (Mus musculus, UniProt P50236)
T2 construct: made in house; host or cells: Salmonella typhimurium TA1538 (cytosolic fraction, enzyme not purified)
T2 sequence (P50236 1-285): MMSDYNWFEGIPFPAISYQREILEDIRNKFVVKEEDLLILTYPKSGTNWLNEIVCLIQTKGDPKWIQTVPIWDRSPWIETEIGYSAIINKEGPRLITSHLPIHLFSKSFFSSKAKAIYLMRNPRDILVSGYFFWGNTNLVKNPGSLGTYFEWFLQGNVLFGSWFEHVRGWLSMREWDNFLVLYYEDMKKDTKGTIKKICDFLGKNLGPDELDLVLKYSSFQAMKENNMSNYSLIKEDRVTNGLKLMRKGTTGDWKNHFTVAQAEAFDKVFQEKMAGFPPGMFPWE
Protocol: as §1, §2, §3

rSult1c2 = target: T3, rSult1c2 (Rattus norvegicus, UniProt Q9WUW8)
T3 construct: made in house; host or cells: Salmonella typhimurium TA1538 (cytosolic fraction, enzyme not purified)
T3 sequence (Q9WUW8 whole entry): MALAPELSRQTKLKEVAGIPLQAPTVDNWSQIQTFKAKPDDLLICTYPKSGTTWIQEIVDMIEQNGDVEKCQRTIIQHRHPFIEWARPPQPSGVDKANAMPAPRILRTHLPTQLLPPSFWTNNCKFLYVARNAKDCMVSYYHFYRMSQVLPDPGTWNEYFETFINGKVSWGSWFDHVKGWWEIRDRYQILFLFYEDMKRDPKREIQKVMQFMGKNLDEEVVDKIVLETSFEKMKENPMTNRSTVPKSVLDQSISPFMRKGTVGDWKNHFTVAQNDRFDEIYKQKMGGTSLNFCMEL
Protocol: as §1, §2, §3

hSULT2B1b = target: T4, hSULT2B1b (Homo sapiens, UniProt O00204)
T4 construct: made in house; host or cells: Salmonella typhimurium TA1538 (cytosolic fraction, not purified)
T4 sequence (O00204 1-365): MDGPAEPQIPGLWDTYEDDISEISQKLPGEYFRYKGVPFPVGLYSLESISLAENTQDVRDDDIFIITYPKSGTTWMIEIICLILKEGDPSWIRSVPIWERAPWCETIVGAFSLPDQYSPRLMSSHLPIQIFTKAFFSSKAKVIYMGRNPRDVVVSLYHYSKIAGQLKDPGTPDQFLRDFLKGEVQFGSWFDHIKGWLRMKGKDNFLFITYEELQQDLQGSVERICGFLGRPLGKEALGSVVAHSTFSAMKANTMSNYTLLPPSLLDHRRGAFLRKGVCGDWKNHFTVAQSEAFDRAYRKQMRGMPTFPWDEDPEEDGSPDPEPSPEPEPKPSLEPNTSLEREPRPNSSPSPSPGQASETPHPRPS
Protocol: as §1, §2, §3

O=Cc1ccc(CO)o1 [HMF, 5-Hydroxymethylfurfural]
Rate of sulfoconjugation (mSult2a1; 0.1 mM HMF): <0.5 pmol/mg/min | Rate of sulfoconjugation (mSult2a1; 1 mM HMF): 1.3 ± 0.2 pmol/mg/min | Rate of sulfoconjugation (mSult2a1; 10 mM HMF): 9.0 ± 0.9 pmol/mg/min | Rate of sulfoconjugation (mSult2a1; 100 mM HMF): 13.1 ± 1.7 pmol/mg/min | Rate of sulfoconjugation (mSult2a2; 0.1 mM HMF): <0.5 pmol/mg/min | Rate of sulfoconjugation (mSult2a2; 1 mM HMF): 4.4 ± 0.8 pmol/mg/min | Rate of sulfoconjugation (mSult2a2; 10 mM HMF): 32.4 ± 3.2 pmol/mg/min | Rate of sulfoconjugation (mSult2a2; 100 mM HMF): 77.5 ± 11.7 pmol/mg/min | Rate of sulfoconjugation (rSult1c2; 0.1 mM HMF): <0.5 pmol/mg/min | Rate of sulfoconjugation (rSult1c2; 1 mM HMF): <0.5 pmol/mg/min | Rate of sulfoconjugation (rSult1c2; 10 mM HMF): 2.3 ± 0.2 pmol/mg/min | Rate of sulfoconjugation (rSult1c2; 100 mM HMF): 15.0 ± 1.1 pmol/mg/min | Rate of sulfoconjugation (hSULT2B1b; 0.1 mM HMF): <0.5 pmol/mg/min | Rate of sulfoconjugation (hSULT2B1b; 1 mM HMF): <0.5 pmol/mg/min | Rate of sulfoconjugation (hSULT2B1b; 10 mM HMF): <0.5 pmol/mg/min | Rate of sulfoconjugation (hSULT2B1b; 100 mM HMF): <0.5 pmol/mg/min
